Results: article PMC6356765, “Nepafenac-Loaded Cyclodextrin/Polymer Nanoaggregates: A New Approach to Eye Drop Formulation” (Materials, 2019)

Columns and labels:
[1] = Phase solubility studies of nepafenac with cyclodextrins; type: physicochemical; details: pure 2.5% HPβCD, aqueous (Figure 2)
Procedure: The solubility of nepafenac in combination with different cyclodextrin concentrations was determined following heating by sonication. Firstly, an excess amount of nepafenac (approximately 5 mg) was added to aqueous solutions containing known concentrations of CDs (ranging up to 15% (w/v) for αCD, γCD, HPαCD, HPβCD, HPγCD and 1.5% (w/v) for βCD) in pure water. The drug suspensions were saturated with nepafenac and heated in a sonicator in sealed vials at 60 °C for 60 min, before being allowed to cool to room temperature. Then, a small amount of solid nepafenac (approximately 2 mg) was added to each suspension to produce drug precipitation. Vials were resealed and placed in a shaker under constant agitation for 7 days. After reaching equilibrium, suspensions were filtered using 0.45 µm membrane filters, before being diluted in pure water and analysed by UHPLC. Determinations were made in triplicate. […]
The apparent stability constant (K1:1) according to the hypothesis of a 1:1 stoichiometric ratio of complexes was calculated using the following equation:(1) K1:1 = slope/S0(1−slope)
In addition, complexation efficiency (CE) was calculated. This factor can be calculated either from the slope of the phase solubility profile or from the ratio of the concentration of the drug/CD complex to free CD [52]:(2) CE=slope/(1−slope)=[Guess/CD complex]/[CD]

[2] = Chemical stability of nepafenac in 1% w/v γCD solution after heating by sonication; type: physicochemical; details: for Mean (± SD) Nepafenac Concentration: aqueous 1% w/v γCD, n = 3
Procedure: The chemical stability of nepafenac was determined in aqueous solution containing 1% w/v γCD following heating by sonication. The solution was shaken for 24 h until the drug was completely dissolved and then passed through a 0.45 µm membrane filter. The solution was then divided between four sealed vials. Vial 1 was used as a blank. Vials 2, 3 and 4 were heated in a sonicator at 60 °C for 20, 40 and 60 min, respectively. Drug concentrations were determined by HPLC.
The HPLC assay was performed using a reverse-phase ultra-high-performance liquid chromatography (UHPLC) Ultimate 3000 series system (Dionex Softron GmbH, Germering, Germany) consisting of a LPG-3400SD pump (Dionex, Germering, Germany) with a built-in degasser, WPS-3000 autosampler (Dionex, Germering, Germany), TCC-3100 column compartment (Dionex, Germering, Germany) and CoronaR ultra RS detector (Dionex, Germering, Germany). During the stationary phase, a Phenomenex Kinetex C18 column (150 × 4.6 mm, 5 µm) with matching HPLC Security Guard (Phenomenex, Cheshire, UK) was used. The mobile phase used a mixture of acetonitrile and water (50:50). The flow rate was 1 mL/min, the column oven temperature was ±25 °C and the detection wave length was set to 254 nm. The retention time for nepafenac under these conditions was 2.3 min.

[3] = design: method as in PMID 27513223, PMID 18500088, PMID 17189793, PMID 28493461; details: powdered form; cited from earlier work
[4] = tested on: human cornea epithelial cell line; design: method as in PMID 9706061; details: cited from earlier work

SMILES	Solubility of nepafenac [1] [µg/mL]	Degradation of nepafenac on heating by sonication ([2]; CD aqueous solutions, sonicator heating)	Mean (± SD) Nepafenac Concentration ([2]; sonication 60 °C 20 min) [µg/mL]	Mean (± SD) Nepafenac Concentration ([2]; sonication 60 °C 40 min) [µg/mL]	Mean (± SD) Nepafenac Concentration ([2]; sonication 60 °C 60 min) [µg/mL]	Biopharmaceutical Classification System class [3]	Cytotoxic profile (ranking among CDs) [4]
NC(=O)Cc1cccc(C(=O)c2ccccc2)c1N [Nepafenac, 2-amino-3-benzoylbenzeneacetamide]	850	no degradation	6.41 ± 0.08	6.49 ± 0.07	6.57 ± 0.08	class IV	–
OC[C@H]1O[C@@H]2O[C@H]3[C@H](O)[C@@H](O)[C@@H](O[C@H]4[C@H](O)[C@@H](O)[C@@H](O[C@H]5[C@H](O)[C@@H](O)[C@@H](O[C@H]6[C@H](O)[C@@H](O)[C@@H](O[C@H]7[C@H](O)[C@@H](O)[C@@H](O[C@H]8[C@H](O)[C@@H](O)[C@@H](O[C@H]9[C@H](O)[C@@H](O)[C@@H](O[C@H]1[C@H](O)[C@H]2O)O[C@@H]9CO)O[C@@H]8CO)O[C@@H]7CO)O[C@@H]6CO)O[C@@H]5CO)O[C@@H]4CO)O[C@@H]3CO [γCD, γ-cyclodextrin]	–	–	–	–	–	–	least cytotoxic profile
